Read-outs that look alike come from different tables or passages of the source. Marks after values point to notes of the source that are not given here.
Experiments:
[1] = Measurement of log P values by HPLC on reversed phase columns (EEC directive 79/831 Annex V.A8); settings: for chromatographic logP: pH 2.7; for LogP: method [a], HPLC on reversed phase columns
[2] = pH 2.7
Uromyces appendiculatus = test: In vivo test on Uromyces appendiculatus (brown rust of bean); settings: Saxa variety plants, spray, 500 ppm, grading 10 days after contamination
Description: (§1) The active ingredients tested are prepared by homogenization in a mixture of acetone/tween/DMSO, then diluted with water to obtain the desired active material.
[…] (Saxa variety) sown on 50/50 peat soil-pozzolana substrate in starter cups and grown at 24° C., are treated at the 2-leaf stage (9 cm tall) by spraying with the aqueous suspension described above.
Plants, used as controls, are treated with an aqueous solution not containing the active material.
(§2) After 24 hours, the plants are contaminated by spraying the leaves with an aqueous suspension of Uromyces appendiculatus spores (150.000 spores per ml). The spores are collected from a 10-day-old contaminated […] and are suspended in water containing 2.5 ml/l of tween 80 10%. The contaminated […] are incubated for 24 hours at 20° C. and at 100% relative humidity, and then for 10 days at 20° C. and at 70% relative humidity. Grading is carried out 10 days after the contamination, in comparison with the control plants.
(§3) Under these conditions, good (at least 70%) or total protection is observed at a dose of 500 ppm with the following compounds: […]

Phytophthora infestans [3] = assay type: in vivo; settings: tomato plants, spray, 500 ppm, grading 5 days after contamination
[4] = test system: Mycosphaerella graminicola; test: In vivo test on Mycosphaerella graminicola (wheat leaf spot); settings: wheat plants, spray, 500 ppm, grading 21 to 28 days after contamination
Description: The active ingredients tested are prepared by homogenization in a mixture of acetone/tween/DMSO, then diluted with water to obtain the desired active material concentration.
Wheat plants (Scipion variety), sown on a 50/50 peat soil-pozzolana substrate in starter cups and grown at 22° C. (12 h)/20° C. (12 h), are treated at the 1-leaf stage (10 cm tall) by spraying with the aqueous suspension described above. Plants, used as controls, are treated with an aqueous solution not containing the active material.
After 24 hours, the plants are contaminated by spraying them with an aqueous suspension of cryopreserved Mycosphaerella graminicola spores (500.000 spores per ml). The contaminated wheat plants are incubated for 72 hours at 18° C. and at 100% relative humidity, and then for 21 to 28 days at 90% relative humidity.
Grading (% of efficacy) is carried out 21 to 28 days after the contamination, in comparison with the control plants.
as §3

Puccinia recondita = test: In vivo test on Puccinia recondita (brown rust); settings: wheat plants, spray, 500 ppm, grading 10 days after contamination
Description: as §1
Wheat plants (Scipion variety) sown on 50/50 peat soil-pozzolana substrate in starter cups and grown at 22° C. (12 h)/20° C. (12 h), are treated at the 1-leaf stage (10 cm tall) by spraying with the aqueous suspension described above.
as §2, with “Plants, used as controls, are treated with an aqueous solution not containing the active material. After” for “After”, “Puccinia recondite” for “Uromyces appendiculatus”, “(100.000” for “(150.000”
as §3

Plasmopara viticola = test: Plasmopara test (grapevines)/preventive; assay type: in vivo; settings: preventive spray, 10 ppm of active ingredient, evaluated 6 days after inoculation
Description: Solvent: 24.5 parts by weight of acetone • 24.5 parts by weight of dimethylacetamide
Emulsifier: 1 part by weight of alkylaryl polyglycol ether
To produce a suitable preparation of active compound, 1 part by weight of active compound is mixed with the stated amounts of solvent and emulsifier, and the concentrate is diluted with water to the desired concentration.
To test for preventive activity, young plants are sprayed with the preparation of active compound at the stated rate of application. After the spray coating has dried on, the plants are inoculated with an aqueous spore suspension of Plasmopara viticola and then remain for 1 day in an incubation cabinet at approximately 20° C. and a relative atmospheric humidity of 100%. The plant is subsequently placed for 4 days in a greenhouse at approximately 21° C. and a relative atmospheric humidity of approximately 90%. The plants are then misted and placed for 1 day in an incubation cabinet.
The test is evaluated 6 days after the inoculation. 0% means an efficacy which corresponds to that of the untreated control, while an efficacy of 100% means that no disease is observed.

Phytophthora infestans [5] = assay type: in vivo; settings: tomato, preventive spray, 100 ppm of active ingredient, evaluated 7 days after inoculation

Structure (SMILES): Cn1c(/C(=N\OCc2cccc(N(CCC3CCCCC3)C(=O)OC(C)(C)C)n2)c2ccccc2)noc1=O [Example 279, tert-butyl (2-cyclohexylethyl){6-[({[(Z)-(4-methyl-5-oxo-4,5-dihydro-1,2,4-oxadiazol-3-yl)(phenyl)methylene]amino}oxy)methyl]pyridin-2-yl}carbamate]
- chromatographic logP [1]: 6.73

Structure (SMILES): C=CCCCCCC(=O)Nc1cccc(CO/N=C(/c2ccccc2)c2noc(=O)n2C)n1 [Example 99]
- LogP [2]: 4.3 [a]
- Eff. % (Uromyces appendiculatus): 71%
- Eff. % (Phytophthora infestans [3]): 99%

Structure (SMILES): CCCCC(=O)Nc1cccc(CO/N=C(/c2cccc(C)c2)c2noc(=O)n2C)n1 [Example 384]
- Eff. % [4]: 70%
- LogP [2]: 3.83 [a]
- Eff. % (Phytophthora infestans [3]): 100%
- Eff. % (Puccinia recondita): 79%

Structure (SMILES): CCCC(C)C(=O)Nc1cccc(CON=C(c2ccccc2)c2noc(=O)n2C)n1 (stereo not shown) [Example 248]
- Eff. % [4]: 86%
- LogP [2]: 3.8 [a]
- Eff. % (Phytophthora infestans [3]): 100%
- Eff. % (Plasmopara viticola): 85%

Structure (SMILES): Cn1c(/C(=N/OCc2cccc(N)n2)c2ccccc2)noc1=O [Example 25, 3-[(E)-{[(6-aminopyridin-2-yl)methoxy]imino}(phenyl)methyl]-4-methyl-1,2,4-oxadiazol-5(4H)-one]
- chromatographic logP [1]: 1.14

Structure (SMILES): COc1cccc(C(=O)Nc2cccc(CO/N=C(/c3ccccc3)c3noc(=O)n3C)n2)c1 [Example 44]
- Eff. % (Phytophthora infestans [3]): 100%
- LogP [1]: 3.62 [a]
- Eff. % (Plasmopara viticola): 98%

Structure (SMILES): Cn1c(/C(=N\OCc2cccc(NC(=O)C(c3ccccc3)c3ccccc3)n2)c2ccccc2)noc1=O [Example 46]
- LogP [1]: 4.48 [a]

Structure (SMILES): Cn1c(C(=O)c2ccccc2)noc1=O [VII-1, 3-benzoyl-4-methyl-1,2,4-oxadiazol-5(4H)-one]
- chromatographic logP [1]: 3.21

Structure (SMILES): C=CCCCOC(=O)Nc1cccc(CO/N=C(/c2ccccc2)c2noc(=O)n2C)n1 [Example 6]
- LogP [1]: 4.06 [a]
- Eff. % (Phytophthora infestans [5]): 98%
- Eff. % (Plasmopara viticola): 100%

Structure (SMILES): Cn1c(/C(=N\OCc2cccc(NCCC3CCCCC3)n2)c2ccccc2)noc1=O [Example 253, 3-[(Z)-[({6-[(2-cyclohexylethyl)amino]pyridin-2-yl}methoxy)imino](phenyl)methyl]-4-methyl-1,2,4-oxadiazol-5(4H)-one]
- chromatographic logP [1]: 2.96

Structure (SMILES): Cn1c(/C(=N\OCc2cccc(NC(=O)CC(C)(C)C)n2)c2ccccc2)noc1=O [Example 173]
- Eff. % [4]: 73%
- LogP [2]: 3.78 [a]
- Eff. % (Phytophthora infestans [3]): 100%
- Eff. % (Puccinia recondita): 89%
- Eff. % (Plasmopara viticola): 86%

Structure (SMILES): Nc1cccc(CO/N=C(/c2ccccc2)c2noc(=O)[nH]2)n1 [Example 23, 3-[(Z)-{[(6-aminopyridin-2-yl)methoxy]imino}(phenyl)methyl]-1,2,4-oxadiazol-5(4H)-one]
- chromatographic logP [1]: 1.36

Structure (SMILES): Cn1c(/C(=N\OCc2cccc(NC(=O)C3(C)CCCCC3)n2)c2ccccc2)noc1=O [Example 40]
- Eff. % (Phytophthora infestans [3]): 100%
- LogP [1]: 4.36 [a]

Structure (SMILES): Cn1c(/C(=N\OCc2csc(N)n2)c2ccccc2)noc1=O [Example 4, 3-[(Z)-{[(2-amino-1,3-thiazol-4-yl)methoxy]imino}(phenyl)methyl]-4-methyl-1,2,4-oxadiazol-5(4H)-one]
- chromatographic logP [1]: 1.54

Structure (SMILES): Cn1c(/C(=N\OCc2cccc(N)n2)c2ccccc2)noc1=O [Example 1, 3-[(Z)-{[(6-aminopyridin-2-yl)methoxy]imino}(phenyl)methyl]-4-methyl-1,2,4-oxadiazol-5(4H)-one]
- chromatographic logP [1]: 1.14

Structure (SMILES): C#CCCCCC(=O)Nc1cccc(CO/N=C(/c2ccccc2)c2noc(=O)n2C)n1 [Example 37]
- Eff. % (Phytophthora infestans [3]): 100%
- LogP [1]: 3.37 [a]
- Eff. % (Plasmopara viticola): 80%

Structure (SMILES): Nc1nc(CO/N=C(/c2ccccc2)c2noc(=O)[nH]2)cs1 [Example 24, 3-[(Z)-{[(2-amino-1,3-thiazol-4-yl)methoxy]imino}(phenyl)methyl]-1,2,4-oxadiazol-5(4H)-one]
- chromatographic logP [1]: 1.58

Structure (SMILES): NC(=N\O)/C(=N\OCc1csc(N)n1)c1ccccc1 [Example V-2, (1Z,2Z)-2-{[(2-amino-1,3-thiazol-4-yl)methoxy]imino}-N′-hydroxy-2-phenylethanimidamide]
- chromatographic logP [1]: 0.43

Structure (SMILES): CCCC(C)C(=O)Nc1cccc(CO/N=C(/c2ccccc2)c2noc(=O)n2CC)n1 (stereo not shown) [Example 172]
- Eff. % [4]: 86%
- LogP [2]: 4.06 [a]
- Eff. % (Phytophthora infestans [3]): 100%
- Eff. % (Puccinia recondita): 89%

Structure (SMILES): CCn1c(/C(=N\OCc2cccc(NC(=O)C3COc4ccccc4O3)n2)c2ccccc2)noc1=O (stereo not shown) [Example 130]
- Eff. % [4]: 86%
- LogP [2]: 4.14 [a]
- Eff. % (Phytophthora infestans [3]): 100%

Structure (SMILES): CCCCOC(=O)Nc1cccc(CO/N=C(/c2ccccc2)c2noc(=O)n2C)n1 [Example 18, butyl {6-[({[(Z)-(4-methyl-5-oxo-4,5-dihydro-1,2,4-oxadiazol-3-yl)(phenyl)methylene]amino}oxy)methyl]pyridin-2-yl}carbamate]
- chromatographic logP [1]: 4.04
- Eff. % (Phytophthora infestans [5]): 95%
- Eff. % (Plasmopara viticola): 100%

Structure (SMILES): Cc1cccc(/C(=N/OCc2cccc(N)n2)c2noc(=O)n2C)c1 [Example 30]
- Eff. % [4]: 86%
- LogP [2]: 1.45 [a]
- Eff. % (Phytophthora infestans [3]): 100%

Structure (SMILES): N/C(=N\O)C(=NOCc1cccc(N)n1)c1ccccc1 [Example V-3, (Z)-2-{[(6-aminopyridin-2-yl)methoxy]imino}-N′-hydroxy-2-phenylethanimidamide]
- chromatographic logP [1]: 0.41

Structure (SMILES): CCCCOC(=O)Nc1nc(CO/N=C(/c2ccccc2)c2noc(=O)n2C)cs1 [Example 14, butyl {4-[({[(Z)-(4-methyl-5-oxo-4,5-dihydro-1,2,4-oxadiazol-3-yl)(phenyl)methylene]amino}oxy)methyl]-1,3-thiazol-2-yl}carbamate]
- chromatographic logP [1]: 3.73
- Eff. % (Phytophthora infestans [5]): 95%
- Eff. % (Plasmopara viticola): 96%

Structure (SMILES): COc1cccc(CCOC(=O)Nc2cccc(CO/N=C(/c3ccccc3)c3noc(=O)n3C)n2)c1 [Example 151]
- Eff. % [4]: 92%
- LogP [2]: 4.11 [a]
- Eff. % (Phytophthora infestans [3]): 85%

Structure (SMILES): Cn1c(/C(=N\OCc2cccc(NC(=O)CCC3CCCCC3)n2)c2ccccc2)noc1=O [Example 77]
- Eff. % [4]: 71%
- LogP [2]: 4.73 [a]
- Eff. % (Phytophthora infestans [3]): 100%

Structure (SMILES): CCCC(C)(C)OC(=O)Nc1cccc(CO/N=C(/c2ccccc2)c2noc(=O)n2C)n1 [Example 233, 2-methylpentan-2-yl {6-[({[(Z)-(4-methyl-5-oxo-4,5-dihydro-1,2,4-oxadiazol-3-yl)(phenyl)methylene]amino}oxy)methyl]pyridin-2-yl}carbamate]
- Eff. % (Phytophthora infestans [3]): 99%
- chromatographic logP [1]: 4.77
- Eff. % (Puccinia recondita): 98%
- Eff. % (Plasmopara viticola): 78%

Structure (SMILES): CC(Oc1ccccc1)C(=O)Nc1nc(CO/N=C(/c2ccccc2)c2noc(=O)n2C)cs1 (stereo not shown) [Example 19]
- LogP [1]: 3.71 [a]
- Eff. % (Phytophthora infestans [5]): 95%
- Eff. % (Plasmopara viticola): 97%

Structure (SMILES): Cn1c(/C(=N\OCc2cccc(NC(=O)OC(C)(C)C)n2)c2ccccc2)noc1=O [Example 21, tert-butyl {6-[({[(Z)-(4-methyl-5-oxo-4,5-dihydro-1,2,4-oxadiazol-3-yl)(phenyl)methylene]amino}oxy)methyl]pyridin-2-yl}carbamate]
- chromatographic logP [1]: 3.96
- Eff. % (Phytophthora infestans [5]): 97%
- Eff. % (Plasmopara viticola): 100%

Reference: patent publication US9090600B2, “Fungicidal 4-substituted-3-{phenyl[(heterocyclylmethoxy)imino]methyl}-1,2,4-oxadizol-5(4H)-one derivatives” (BAYER INTELLECTUAL PROPERTY GMBH, priority 2011, dated 2015)
